The test system of test [1] is CL 4931, CL 5053, CL 5242 and CL 4877. The test is classed as cell-based, E. faecium, E. faecalis. Further details: unit not given here. As to conditions: mean of CL4931, CL5053, CL5242, CL4877; unit not given. The source says: (§1) National Committee for Clinical Laboratory Standards (NCCLS) guidelines [Methods for Dilution Antimicrobial Susceptibility Tests for Bacteria that Grow Aerobically-Fourth Edition; Approved Standard (NCCLS Document M7-A4, January 1997)] are used to establish the assay, although variations are made to optimize the published method according to the specific needs of the present investigation.
(§2) The test panel currently includes eight enterococci and 13 staphylococci, which are selected based upon their antibiotic susceptibility profiles. The methicillin-sensitive Staphylococcus aureus (MSSA) strain MB2985 (Smith isolate) is used to assesses the potential for serum protein binding of the compounds. The paired Gram-negative strains ASP #49 (envA-) and ASP #50 (envA+) (M. Salvatore/N. Lee) are included to judge membrane effects. Table 3 presents a detailed description of the strains included in the panel, including some of the sources of the strains of bacteria.
(§3) The glycopeptide antibiotic teicoplanin is included whenever possible.
(§4) TSB, containing 10% HS* for vancomycin intermediate S. aurcus/methicillin-resistant S. aureus (VISA/MRSA) strains, is inoculated from an appropriate source (frozen broth or agar slant) and grown approximately 17 hr at 35° C. with shaking at 220 rpm. Cultures are grown in tubes with a volume of 5 ml for enterococci and 2 ml for all other strains.
(§5) Four milliliter (4 ml) overnight culture is added to 36 ml physiological saline to obtain tenfold dilutions (enterococci). Overnight culture (0.4 ml) is added to 39.6 ml saline to obtain 100-fold dilutions (all strains except enterococci). Diluted cultures are maintained on ice until time of inoculation of test plates.
(§6) The number of CFU/mL is determined on BHI agar plates, although this is not done routinely because titers of overnight cultures are relatively constant. The test media include: • BHI for enterococci and VISA/MRSA; • MH II (i.e., cation-adjusted Mueller-Hinton broth) for MRS, MSS and E. coli.; • MH II+HSA for MSSA is prepared as follows: • a. 2×MHII+86mg/ml HSA • b. Dissolve 4.3 g HSA in 50 ml autoclaved 2x MH II. • c. pH to 7.0 by adding 2M MOPS, sodium. • d. Filter sterilize using 0.22 μm Coming cellulose acetate filter, used because of reported low protein binding. • e. 1×MH II+43 mg/ml HSA • f. Dilute the 2×medium twofold and filter as above. 5.8.6. Preparation of Test Plates
(§7) Using a Denley liquid handling system (or similar automatic device), 100 μ1×medium is added to each well in columns 2-12 of a 96-well microtiter dish. Using a multichannel pipettor, 100 μl 2×medium is added to each well in column 1. Plates may be filled on the day prior to assay, wrapped in plastic bags and refrigerated.
(§8) Vancomycin, Schering 29482, and teicoplanin are prepared on a weight per volume basis using 10 mM 3-(N-morpholino)propane-sulfonic acid (MOPS) buffer pH 7. Test compounds are received in solution in appropriate solvent (typically as 1 mg/ml in DMSO) or are dissolved in appropriate solvent prior to further dilution in 10 mM MOPS buffer, ph7. Consistent with NCCLS guidelines, antibiotics are handled aseptically but are not otherwise sterilized.
(§9) 100 μl appropriately diluted antibiotic solution is added to the first well of the designated row of the 96-well microtiter dish and serially diluted by twofold across the row using the Denley liquid handling system. With the aid of a Dynatech NEC 2000 inoculator, each well of the microtiter dish is inoculated with 1.5 μl diluted overnight culture, yielding approximately 1-5×10^6 CFU/ml for enterococci and approximately 3-7×10^5 CFU/ml for all other strains. Dishes are placed in stacks of no more than five, wrapped in plastic bags and incubated at 35° C. • Indication of result(s) type (% INH, IC50, Zone size, etc.) • MIC=minimum inhibitory concentration ps 5.8.9. Interpretation of the Results on the Basis of Activity […]

Test [2] concerns E. faecium CL 5053 (VanA). The test is described as follows: microbe, parasite or virus in culture. It is filed as cell-based. Further details: CL5053 (in vitro testing): unit not given here. Particulars: Tables 7 and 8; unit not given.
Source text: as §1, §2, §3, §4, §5, §6, §7, §8, §9

Test [3] concerns E. faecium CL 5242 (VanA). In words: microbe, parasite or virus in culture. Also on record: CL5242 (in vitro testing): unit not given here. The test is classed as cell-based. Particulars: Tables 7 and 8; unit not given.
Source text: as §1, §2, §3, §4, §5, §6, §7, §8, §9

The test system of test [4] is E. faecium CL 4931 (VanA). In words: microbe, parasite or virus in culture. The test is classed as cell-based. Further details: CL4931 (in vitro testing): unit not given here. As to conditions: Tables 7 and 8; unit not given.
Source text: as §1, §2, §3, §4, §5, §6, §7, §8, §9

Test [5] has as its system E. faecalis CL 4877 (VanB). The test is described as follows: microbe, parasite or virus in culture. It is filed as cell-based. Further details: CL4877 (in vitro testing): unit not given here. As to conditions: Tables 7 and 8; unit not given.
Source text: as §1, §2, §3, §4, §5, §6, §7, §8, §9

In test [1], `CNC(CC(C)C)C(=O)NC1C(=O)NC(CC(N)=O)C(=O)NC2C(=O)NC3C(=O)NC(C(=O)NC(C(=O)O)c4cc(O)cc(O)c4-c4cc3ccc4O)C(O)c3ccc(c(Cl)c3)Oc3cc2cc(c3OC2OC(CNCc3ccc(N)cc3)C(O)C(O)C2OC2CC(C)(NCc3ccc(OCc4ccc(Cl)c(Cl)c4)cc3)C(O)C(C)O2)Oc2ccc(cc2Cl)C1O` (stereo not drawn) [Compound 133] displayed a Mean of 1.1. Further, the “CL5053 (in vitro testing)” value in test [2] turned out to be 2. Moreover, the “CL5242 (in vitro testing)” value in test [3] was found to be 0.5. Further, the “CL4931 (in vitro testing)” value in test [4] was 2. Besides, in test [5], the “CL4877 (in vitro testing)” value turned out to be 0.03.
Compound `CNC(CC(C)C)C(=O)NC1C(=O)NC(CC(N)=O)C(=O)NC2C(=O)NC3C(=O)NC(C(=O)NC(C(=O)O)c4cc(O)cc(O)c4-c4cc3ccc4O)C(O)c3ccc(c(Cl)c3)Oc3cc2cc(c3OC2OC(CNCc3ccccc3)C(O)C(O)C2OC2CC(C)(NCc3ccc(OCc4ccc(Cl)c(Cl)c4)cc3)C(O)C(C)O2)Oc2ccc(cc2Cl)C1O` (stereo not drawn) [Compound 134] showed a Mean in test [1] of 1.8. In test [2], the “CL5053 (in vitro testing)” value is listed as 4. The “CL5242 (in vitro testing)” value in test [3] was 1. The “CL4931 (in vitro testing)” value in test [4] was 2. Besides, in test [5], the “CL4877 (in vitro testing)” value turned out to be 0.25.
The corresponding values for `CNC(CC(C)C)C(=O)NC1C(=O)NC(CC(N)=O)C(=O)NC2C(=O)NC3C(=O)NC(C(=O)NC(C(=O)O)c4cc(O)cc(O)c4-c4cc3ccc4O)C(O)c3ccc(c(Cl)c3)Oc3cc2cc(c3OC2OC(CNCCc3ccc(N)cc3)C(O)C(O)C2OC2CC(C)(NCc3ccc(OCc4ccc(Cl)c(Cl)c4)cc3)C(O)C(C)O2)Oc2ccc(cc2Cl)C1O` (stereo not drawn) [Compound 135] are 2.3, 4, 1, 4 and 0.06.
For `CNC(CC(C)C)C(=O)NC1C(=O)NC(CC(N)=O)C(=O)NC2C(=O)NC3C(=O)NC(C(=O)NC(C(=O)O)c4cc(O)cc(O)c4-c4cc3ccc4O)C(O)c3ccc(c(Cl)c3)Oc3cc2cc(c3OC2OC(CNCc3ccc(F)cc3)C(O)C(O)C2OC2CC(C)(NCc3ccc(OCc4ccc(Cl)c(Cl)c4)cc3)C(O)C(C)O2)Oc2ccc(cc2Cl)C1O` (stereo not drawn) [Compound 136], in that order: 2.3, 4, 1, 4 and 0.12.
For `CNC(CC(C)C)C(=O)NC1C(=O)NC(CC(N)=O)C(=O)NC2C(=O)NC3C(=O)NC(C(=O)NC(C(=O)O)c4cc(O)cc(O)c4-c4cc3ccc4O)C(O)c3ccc(c(Cl)c3)Oc3cc2cc(c3OC2OC(CNCc3cccc(Cl)c3)C(O)C(O)C2OC2CC(C)(NCc3ccc(OCc4ccc(Cl)c(Cl)c4)cc3)C(O)C(C)O2)Oc2ccc(cc2Cl)C1O` (stereo not drawn) [Compound 137], in that order: 2.3, 4, 1, 4 and 0.12.
As for `CNC(CC(C)C)C(=O)NC1C(=O)NC(CC(N)=O)C(=O)NC2C(=O)NC3C(=O)NC(C(=O)NC(C(=O)O)c4cc(O)cc(O)c4-c4cc3ccc4O)C(O)c3ccc(c(Cl)c3)Oc3cc2cc(c3OC2OC(CNCc3ccc(OC)cc3)C(O)C(O)C2OC2CC(C)(NCc3ccc(OCc4ccc(Cl)c(Cl)c4)cc3)C(O)C(C)O2)Oc2ccc(cc2Cl)C1O` (stereo not drawn) [Compound 138], in test [1], the Mean worked out at 3.4. For the same compound, the “CL5053 (in vitro testing)” value in test [2] is recorded as 4. The “CL5242 (in vitro testing)” value in test [3] is given as 1. In addition, the “CL4931 (in vitro testing)” value in test [4] worked out at 8. In addition, the “CL4877 (in vitro testing)” value in test [5] turned out to be 0.5.
For `CNC(CC(C)C)C(=O)NC1C(=O)NC(CC(N)=O)C(=O)NC2C(=O)NC3C(=O)NC(C(=O)NC(C(=O)O)c4cc(O)cc(O)c4-c4cc3ccc4O)C(O)c3ccc(c(Cl)c3)Oc3cc2cc(c3OC2OC(CNCc3ccccc3N)C(O)C(O)C2OC2CC(C)(NCc3ccc(OCc4ccc(Cl)c(Cl)c4)cc3)C(O)C(C)O2)Oc2ccc(cc2Cl)C1O` (stereo not drawn) [Compound 139], in that order: 3.6, 4, 2, 8 and 0.25.
The corresponding values for `CNC(CC(C)C)C(=O)NC1C(=O)NC(CC(N)=O)C(=O)NC2C(=O)NC3C(=O)NC(C(=O)NC(C(=O)O)c4cc(O)cc(O)c4-c4cc3ccc4O)C(O)c3ccc(c(Cl)c3)Oc3cc2cc(c3OC2OC(CNCC3CCCCN3)C(O)C(O)C2OC2CC(C)(NCc3ccc(OCc4ccc(Cl)c(Cl)c4)cc3)C(O)C(C)O2)Oc2ccc(cc2Cl)C1O` (stereo not drawn) [Compound 140] are 3.6, 8, 2, 4 and 0.5.
The corresponding values for `CNC(CC(C)C)C(=O)NC1C(=O)NC(CC(N)=O)C(=O)NC2C(=O)NC3C(=O)NC(C(=O)NC(C(=O)O)c4cc(O)cc(O)c4-c4cc3ccc4O)C(O)c3ccc(c(Cl)c3)Oc3cc2cc(c3OC2OC(CNCc3ccc(C)cc3)C(O)C(O)C2OC2CC(C)(NCc3ccc(OCc4ccc(Cl)c(Cl)c4)cc3)C(O)C(C)O2)Oc2ccc(cc2Cl)C1O` (stereo not drawn) [Compound 141] are 3.8, 8, 2, 4 and 1.
In test [1], `CNC(CC(C)C)C(=O)NC1C(=O)NC(CC(N)=O)C(=O)NC2C(=O)NC3C(=O)NC(C(=O)NC(C(=O)O)c4cc(O)cc(O)c4-c4cc3ccc4O)C(O)c3ccc(c(Cl)c3)Oc3cc2cc(c3OC2OC(CNCC3CCCO3)C(O)C(O)C2OC2CC(C)(NCc3ccc(OCc4ccc(Cl)c(Cl)c4)cc3)C(O)C(C)O2)Oc2ccc(cc2Cl)C1O` (stereo not drawn) [Compound 142] came in with a Mean of 4.0. In test [2], the “CL5053 (in vitro testing)” value amounted to 8. Moreover, the “CL5242 (in vitro testing)” value in test [3] is reported as 2. Besides, in test [4], the “CL4931 (in vitro testing)” value was determined as 4. Further, the “CL4877 (in vitro testing)” value in test [5] came out at 2.
As for `CNC(CC(C)C)C(=O)NC1C(=O)NC(CC(N)=O)C(=O)NC2C(=O)NC3C(=O)NC(C(=O)NC(C(=O)O)c4cc(O)cc(O)c4-c4cc3ccc4O)C(O)c3ccc(c(Cl)c3)Oc3cc2cc(c3OC2OC(CNCCc3ccccc3)C(O)C(O)C2OC2CC(C)(NCc3ccc(OCc4ccc(Cl)c(Cl)c4)cc3)C(O)C(C)O2)Oc2ccc(cc2Cl)C1O` (stereo not drawn) [Compound 143], in test [1], the Mean stood at 4.0. Further, the “CL5053 (in vitro testing)” value in test [2] was 4. The “CL5242 (in vitro testing)” value in test [3] amounted to 2. In addition, the “CL4931 (in vitro testing)” value in test [4] was determined as 8. The “CL4877 (in vitro testing)” value in test [5] is 2.
In test [1], `CNC(CC(C)C)C(=O)NC1C(=O)NC(CC(N)=O)C(=O)NC2C(=O)NC3C(=O)NC(C(=O)NC(C(=O)O)c4cc(O)cc(O)c4-c4cc3ccc4O)C(O)c3ccc(c(Cl)c3)Oc3cc2cc(c3OC2OC(CNC3CCCC3)C(O)C(O)C2OC2CC(C)(NCc3ccc(OCc4ccc(Cl)c(Cl)c4)cc3)C(O)C(C)O2)Oc2ccc(cc2Cl)C1O` (stereo not drawn) [Compound 144] showed a Mean of 4.0. For the same compound, in test [2], the “CL5053 (in vitro testing)” value was found to be 8. The “CL5242 (in vitro testing)” value in test [3] stood at 2. The “CL4931 (in vitro testing)” value in test [4] was 4. The “CL4877 (in vitro testing)” value in test [5] was found to be 2.

(Values after patent publication US6841661B2, “Glycopeptide antibacterial compounds, compositions containing same and methods of using same” (Princeton Univerisity, priority 1999, dated 2005).)
